Source: patent publication US10106508B2, “Quinazoline heterocyclic compound as EGFR kinase inhibitor and preparation and application thereof” (BEIJING SCITECH-MQ PHARMACEUTICALS LIMITED, priority 2015, dated 2018)

Legend:
EGFR (T790M) = EGFR (T790M) (Homo sapiens (Human), UniProt P00533, T790M); assay: Kinase-Glo luminescent kinase assay, EGFR tyrosine kinase inhibitory activity (T790M); format: biochemical
Experimental: (§1) Determination of the Compound Inhibitory Activity Against EGFR Kinase
(§2) The inhibitory activity of compounds in formula (I) and (II) were determined using Kinase-Glo luminescent kinase assay. The receptor tyrosine kinase EGFR was tested and Gefitinib, a known EGFR inhibitor, was chosen as the positive control compound. The method is detailed below:
(§3) The sample compounds were dissolved in DMSO and diluted it to 500 μM concentration with DMSO and transferred to a dose plate. The compounds were serially diluted with DMSO in 5 fold concentration. Then each concentration was diluted 10-fold with the reaction buffer to get a 10× final concentration. Transfer the compounds with concentrations ranging from 0.003 μM to 50 μM to EGFR assay plate to determine their kinase activity with a dose of 1 μL/well.
(§4) The positive control compound Gifitinib was dissolved in DMSO as 10 mM stock solution and diluted it to 100 μM concentration with DMSO. The control compound was serially diluted with DMSO in 5 fold concentration. Then each concentration was diluted 10-fold with the reaction buffer to get a 10× final concentration.
(§5) For the HPE (hundred percent effect: No kinase and no compound, but containing ATP, substrate and 1% DMSO) and ZPE (zero percent effect: No compound but containing kinase, ATP, substrate and 1% DMSO) wells, dilute 2 μL DMSO 10-fold with reaction buffer to obtain 10% DMSO solution. Then transfer it to the assay plat, 1 μL/well. The positive control wells contain kinase, ATP, substrate and positive control compound in different concentrations. The sample compound wells contain kinase, ATP, substrate and the compounds to be tested in different concentrations.
(§6) Preparation of the reagents in need: 4×ATP: dilute ATP 4 times with assay buffer to obtain a working solution; 4× substrate: dilute Poly ([…]: tyrosine) 4 times with assay buffer to obtain a working solution; 2.5×EGFR kinase: dilute EGFR kinase 2.5 times with assay buffer to obtain a working solution.
(§7) Kinase reaction: Add 10× compounds to the assay plate in a 384-well plate layout, 1 μL/well. For the HPE and ZPE wells, equal volume (1 μL/well) of 10% DMSO was added to the 384-well assay plate; Add 2.5×EGFR kinase into the assay plate in 384-well plate layout, 4 μL/well. For HPE and ZPE wells, an equal volume (4 μL/well) of assay buffer was added to the 384-well assay plate; Centrifuge the assay plate with 1000 rpm for 1 min to mix them; Pre-incubate the assay plate for 30 min at 30° C.; Mix equal volume of 4×ATP and 4× substrate to obtain 2×ATP-substrate mixture which serves as a reaction mixture for the determination of EGFR activity; Add 2×ATP-substrate mixture to the assay plate, 5 μL/well; Centrifuge the assay plate at 1000 rpm for 1 min to mix them; Incubate the assay plate for one hour at 30° C.; Add Kinase glo plus was to each well (10 μL/well), and then incubated the assay plate for 20 min at 27° C.; Read luminescence signal with Envision plate reader.

EGFR (WT) = EGFR (WT) (Homo sapiens (Human), UniProt P00533); assay: Kinase-Glo luminescent kinase assay, EGFR tyrosine kinase inhibitory activity (WT); format: biochemical; details: EGFR wild type
Chain of EGFR (WT) (P00533 25-1210): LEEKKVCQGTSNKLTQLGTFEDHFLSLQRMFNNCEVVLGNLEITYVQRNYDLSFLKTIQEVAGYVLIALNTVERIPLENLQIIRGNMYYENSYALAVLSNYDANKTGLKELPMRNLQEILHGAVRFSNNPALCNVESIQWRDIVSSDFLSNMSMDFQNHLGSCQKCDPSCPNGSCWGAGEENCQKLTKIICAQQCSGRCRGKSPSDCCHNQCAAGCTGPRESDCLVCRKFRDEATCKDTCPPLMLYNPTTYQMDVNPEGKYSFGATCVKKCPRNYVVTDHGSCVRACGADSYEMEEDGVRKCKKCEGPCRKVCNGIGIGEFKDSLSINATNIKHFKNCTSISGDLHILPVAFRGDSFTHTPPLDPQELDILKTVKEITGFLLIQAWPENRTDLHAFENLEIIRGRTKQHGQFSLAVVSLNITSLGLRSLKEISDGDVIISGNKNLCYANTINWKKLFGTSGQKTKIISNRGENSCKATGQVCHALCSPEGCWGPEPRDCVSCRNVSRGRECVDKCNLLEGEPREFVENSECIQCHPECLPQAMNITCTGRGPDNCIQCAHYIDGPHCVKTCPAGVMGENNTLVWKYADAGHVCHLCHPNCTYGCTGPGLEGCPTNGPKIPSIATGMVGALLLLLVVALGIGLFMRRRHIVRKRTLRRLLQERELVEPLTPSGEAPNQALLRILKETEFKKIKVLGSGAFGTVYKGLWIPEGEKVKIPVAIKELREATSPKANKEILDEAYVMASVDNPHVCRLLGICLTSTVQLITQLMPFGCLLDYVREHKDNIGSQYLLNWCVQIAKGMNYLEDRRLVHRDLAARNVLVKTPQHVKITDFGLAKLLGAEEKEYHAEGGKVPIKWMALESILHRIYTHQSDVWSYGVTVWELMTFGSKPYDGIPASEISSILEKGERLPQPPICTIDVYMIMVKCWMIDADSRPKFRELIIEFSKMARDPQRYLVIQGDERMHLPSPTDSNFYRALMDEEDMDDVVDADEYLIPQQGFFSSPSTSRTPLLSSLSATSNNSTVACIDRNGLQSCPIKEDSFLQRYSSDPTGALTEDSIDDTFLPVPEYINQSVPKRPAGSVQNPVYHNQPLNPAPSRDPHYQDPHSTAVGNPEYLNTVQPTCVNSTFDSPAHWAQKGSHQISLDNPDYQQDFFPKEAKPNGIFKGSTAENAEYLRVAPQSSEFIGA
Experimental: as §1, §2, §3, §4, §5, §6, §7

Chain of EGFR (T790M) (P00533 25-1210 T790M): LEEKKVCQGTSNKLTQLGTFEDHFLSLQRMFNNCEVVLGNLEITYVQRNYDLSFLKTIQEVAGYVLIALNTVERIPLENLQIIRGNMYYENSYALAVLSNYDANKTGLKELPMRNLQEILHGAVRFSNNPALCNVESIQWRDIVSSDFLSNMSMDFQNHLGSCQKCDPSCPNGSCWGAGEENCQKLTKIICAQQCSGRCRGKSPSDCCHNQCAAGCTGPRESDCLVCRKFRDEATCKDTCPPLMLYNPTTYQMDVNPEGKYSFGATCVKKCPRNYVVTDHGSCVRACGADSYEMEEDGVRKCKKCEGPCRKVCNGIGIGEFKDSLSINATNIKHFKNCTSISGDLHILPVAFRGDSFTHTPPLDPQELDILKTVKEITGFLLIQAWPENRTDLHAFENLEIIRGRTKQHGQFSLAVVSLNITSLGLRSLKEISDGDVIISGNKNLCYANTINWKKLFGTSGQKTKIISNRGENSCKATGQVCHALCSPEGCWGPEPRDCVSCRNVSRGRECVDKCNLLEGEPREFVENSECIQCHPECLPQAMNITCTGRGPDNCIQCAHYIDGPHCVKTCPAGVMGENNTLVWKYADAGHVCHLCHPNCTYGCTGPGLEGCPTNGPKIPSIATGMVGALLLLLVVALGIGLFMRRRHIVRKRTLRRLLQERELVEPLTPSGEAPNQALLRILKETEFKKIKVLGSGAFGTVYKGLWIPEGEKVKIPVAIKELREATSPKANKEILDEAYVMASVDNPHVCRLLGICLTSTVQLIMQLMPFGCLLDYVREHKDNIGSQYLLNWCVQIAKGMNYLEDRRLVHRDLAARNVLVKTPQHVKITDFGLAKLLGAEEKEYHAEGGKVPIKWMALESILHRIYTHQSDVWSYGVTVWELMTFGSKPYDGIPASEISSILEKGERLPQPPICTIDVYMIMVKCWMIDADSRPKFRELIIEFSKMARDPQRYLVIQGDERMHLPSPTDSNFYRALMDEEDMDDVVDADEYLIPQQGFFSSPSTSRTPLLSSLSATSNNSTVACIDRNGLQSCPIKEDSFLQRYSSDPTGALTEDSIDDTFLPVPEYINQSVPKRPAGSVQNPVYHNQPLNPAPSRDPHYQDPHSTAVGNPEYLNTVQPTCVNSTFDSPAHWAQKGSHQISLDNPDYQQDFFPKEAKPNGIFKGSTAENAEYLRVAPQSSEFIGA

Row | SMILES | IC50 (EGFR (T790M)) [nM] | IC50 (EGFR (WT)) [nM]
1 | CCOC(C)Oc1cc2ncnc(Nc3ccc(OC)c([N+](=O)[O-])c3)c2c2c1OCCO2 (stereo not drawn) [Compound I-15, 5-(1-Ethoxyethoxy)-N-(4-methoxy-3-nitrophenyl)-2,3-dihydro-[1,4]dioxino[2,3-f]quinazolin-10-amine] | < 1000 | < 1000
2 | CCOc1cc2ncnc(Nc3cccc([N+](=O)[O-])c3)c2c2c1OCCO2 [Compound I-38, 5-Ethoxy-N-(3-nitrophenyl)-2,3-dihydro-[1,4]dioxino[2,3-f]quinazolin-10-amine] | < 50 | < 50
3 | Cc1ccc(Nc2ncnc3cc(OC(C)C)c4c(c23)OCCO4)cc1C#N [Compound I-6, 5-((5-Isopropoxy-2,3-dihydro-[1,4]dioxino[2,3-f]quinazolin-10-yl)amino)-2-methylbenzonitrile] | < 1000 | < 400
4 | CCOC(C)Oc1cc2ncnc(Nc3ccc(F)c(C#N)c3)c2c2c1OCCO2 (stereo not drawn) [Compound I-19, 5-((5-(1-Ethoxyethoxy)-2,3-dihydro-[1,4]dioxino[2,3-f]quinazolin-10-yl)amino)-2-fluoro-benzonitrile] | < 1000 | < 300
5 | C#Cc1cccc(Nc2ncnc3cc(OC)c4c(c23)OCCO4)c1 [Compound I-28, N-(3-Ethynylphenyl)-5-methoxy-2,3-dihydro-[1,4]dioxino[2,3-f]quinazolin-10-amine] | < 1000 | < 50
6 | COCCOc1cc2ncnc(Nc3ccc(F)cc3)c2c2c1OCCO2 [Compound I-32, N-(4-fluorophenyl)-5-(2-methoxyethoxy)-2,3-dihydro-[1,4]dioxino[2,3-f]quinazolin-10-amine] | < 1000 | < 200
7 | COc1cc2ncnc(Nc3ccc(F)c(Cl)c3)c2c2c1OCCO2 [Compound I-29, N-(3-Chloro-4-fluorophenyl)-5-methoxy-2,3-dihydro-[1,4]dioxino[2,3-f]quinazolin-10-amine] | < 1000 | < 50
8 | COCCOc1cc2ncnc(Nc3ccc(C)c([N+](=O)[O-])c3)c2c2c1OCCO2 [Compound I-11, 5-(2-Methoxyethoxy)-N-(4-methyl-3-nitrophenyl)-2,3-dihydro-[1,4]dioxino[2,3-f]quinazolin-10-amine] | < 1000 | < 100
9 | COCCOc1cc2ncnc(Nc3ccc(OC)c([N+](=O)[O-])c3)c2c2c1OCCO2 [Compound I-9, N-(4-Methoxy-3-nitrophenyl)-5-(2-methoxyethoxy)-2,3-dihydro-[1,4]dioxino[2,3-f]quinazolin-10-amine] | < 1000 | < 1000
10 | CCOC(C)Oc1cc2ncnc(Nc3ccc(C)c(C#N)c3)c2c2c1OCCO2 (stereo not drawn) [Compound I-20, 5-((5-(1-Ethoxyethoxy)-2,3-dihydro-[1,4]dioxino[2,3-f]quinazolin-10-yl)amino)-2-methylbenzonitrile] | < 1000 | < 1000
11 | Fc1ccc(Nc2ncnc3cc(OCC4CCCO4)c4c(c23)OCCO4)cc1Cl (stereo not drawn) [Compound I-40, N-(3-Chloro-4-fluorophenyl)-5-((tetrahydrofuran-2-yl)methoxy)-2,3-dihydro-[1,4]dioxino[2,3-f]quinazolin-10-amine] | < 1000 | < 50
12 | COCCOc1cc2ncnc(Nc3ccc(F)c(C#N)c3)c2c2c1OCCO2 [Compound I-13, 2-Fluoro-5-((5-(2-methoxyethoxy)-2,3-dihydro-[1,4]dioxino[2,3-f]quinazolin-10-yl)amino)benzonitrile] | < 1000 | < 500
13 | Cc1ccc(Nc2ncnc3cc(OC(C)C)c4c(c23)OCCO4)cc1[N+](=O)[O-] [Compound I-3, 5-Isopropoxy-N-(4-methyl-3-nitrophenyl)-2,3-dihydro-[1,4]dioxino[2,3-f]quinazolin-10-amine] | < 1000 | < 200
14 | C#Cc1cccc(Nc2ncnc3cc(OCCOC)c4c(c23)OCCO4)c1 [Compound I-31, N-(3-Ethynylphenyl)-5-(2-methoxyethoxy)-2,3-dihydro-[1,4]dioxino[2,3-f]quinazolin-10-amine] | < 50 | < 50
15 | CC(C)Oc1cc2ncnc(Nc3ccc(F)c([N+](=O)[O-])c3)c2c2c1OCCO2 [Compound I-2, N-(4-Fluoro-3-nitrophenyl)-5-isopropoxy-2,3-dihydro-[1,4]dioxino[2,3-f]quinazolin-10-amine] | < 1000 | < 100
16 | COc1ccc(Nc2ncnc3cc(OC(C)C)c4c(c23)OCCO4)cc1[N+](=O)[O-] [Compound I-1, 5-Isopropoxy-N-(4-methoxy-3-nitrophenyl)-2,3-dihydro-[1,4]dioxino[2,3-f]quinazolin-10-amine] | < 1000 | < 1000

Results, then the compound that gave them:

Row | IC50 (EGFR (T790M)) [nM] | IC50 (EGFR (WT)) [nM] | SMILES
17 | < 1000 | < 300 | CCOC(C)Oc1cc2ncnc(Nc3ccc(Cl)c([N+](=O)[O-])c3)c2c2c1OCCO2 (stereo not drawn) [Compound I-17, N-(4-Chloro-3-nitrophenyl)-5-(1-ethoxyethoxy)-2,3-dihydro-[1,4]dioxino[2,3-f]quinazolin-10-amine]
18 | < 1000 | < 200 | COc1ccc(Nc2ncnc3cc4c(cc23)N(CCCN2CCOCC2)C(=O)CO4)cc1OC [II-5, 4-((3,4-Dimethoxyphenyl)amino)-6-(3-morpholinopropyl)-6H-[1,4]oxazino[3,2-g]quinazolin-7(8H)-one]
19 | < 1000 | < 300 | CC(C)Oc1cc2ncnc(Nc3ccc(F)c(C#N)c3)c2c2c1OCCO2 [Compound I-5, 2-Fluoro-5-((5-isopropoxy-2,3-dihydro-[1,4]dioxino[2,3-f]quinazolin-10-yl)amino)benzonitrile]
20 | < 1000 | < 200 | CC(C)Oc1cc2ncnc(Nc3ccc(OCc4cccc(F)c4)c(Cl)c3)c2c2c1OCCO2 [Compound I-27, N-(3-Chloro-4-((3-fluorobenzyl)oxy)phenyl)-5-isopropoxy-2,3-dihydro-[1,4]dioxino[2,3-f]quinazolin-10-amine]
21 | < 1000 | < 200 | Cc1ccc(Nc2ncnc3cc4c(cc23)N(CCCN2CCOCC2)C(=O)CO4)cc1Cl [II-3, 4-((3-Chloro-4-methylphenyl)amino)-6-(3-morpholinopropyl)[1,4]oxazino[3,2-g]quinazolin-7(8H)-one]
22 | < 1000 | < 1000 | COCCOc1cc2ncnc(Nc3ccc(C)c(C#N)c3)c2c2c1OCCO2 [Compound I-14, 5-((5-(2-Methoxyethoxy)-2,3-dihydro-[1,4]dioxino[2,3-f]quinazolin-10-yl)amino)-2-methylbenzonitrile]
23 | < 1000 | < 50 | COCCOc1cc2ncnc(Nc3ccc(Cl)c([N+](=O)[O-])c3)c2c2c1OCCO2 [Compound I-12, N-(4-Chloro-3-nitrophenyl)-5-(2-methoxyethoxy)-2,3-dihydro-[1,4]dioxino[2,3-f]quinazolin-10-amine]
24 | < 1000 | < 200 | COc1cccc(Nc2ncnc3cc4c(cc23)N(CCCN2CCOCC2)C(=O)CO4)c1 [II-4, 4-((3-Methoxyphenyl)amino)-6-(3-morpholinopropyl)-6H-[1,4]oxazino[3,2-g]quinazolin-7(8H)-one]
25 | < 1000 | < 300 | CCOC(C)Oc1cc2ncnc(Nc3ccc(C)c([N+](=O)[O-])c3)c2c2c1OCCO2 (stereo not drawn) [Compound I-18, 5-(1-Ethoxyethoxy)-N-(4-methyl-3-nitrophenyl)-2,3-dihydro-[1,4]dioxino[2,3-f]quinazolin-10-amine]
26 | < 1000 | < 100 | CC(C)Oc1cc2ncnc(Nc3ccc(Cl)c([N+](=O)[O-])c3)c2c2c1OCCO2 [Compound I-4, N-(4-Chloro-3-nitrophenyl)-5-isopropoxy-2,3-dihydro-[1,4]dioxino[2,3-f]quinazolin-10-amine]
27 | < 300 | < 100 | C#Cc1cccc(Nc2ncnc3cc(OC(C)COC)c4c(c23)OCCO4)c1 (stereo not drawn) [Compound I-26, N-(3-Ethynylphenyl)-5-(1-methoxypropan-2-yloxy)-2,3-dihydro-[1,4]dioxino[2,3-f]quinazolin-10-amine]
